ChEMBL document CHEMBL1201862, “PubChem BioAssay data set” (2004)
Active and inactive are the calls of the source.

Legend:
Cannabinoid receptor 2 [1] = target: T1, Cannabinoid receptor 2 (Homo sapiens, UniProt P34972); experiment: SAR analysis of agonists of the Cannabinoid Receptor 2 using an Image-Based Assay. [Related pubchem assays (depositor defined):AID2013, AID2026]; type: functional
Cannabinoid receptor 2 [2] = target: T1, Cannabinoid receptor 2; experiment: SAR analysis of antagonists of the Cannabinoid Receptor 2 using an Image-Based Assay. [Related pubchem assays (depositor defined):AID2013, AID2026]; type: functional
[3] = target: T2, G-protein coupled receptor 55 (Homo sapiens, UniProt Q9Y2T6); experiment: GPR55 antagonists blocking LPI-driven arrestin recruitment, primary screen, imaging, U2OS, beta-arrestin-GFP, LPI agonist (AID 2013); type: functional;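 further: antagonist potency measured as reduced agonist-driven arrestin aggregation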
[4] = target: T3, G-protein coupled receptor 35 (Homo sapiens, UniProt Q9HC97); experiment: SAR analysis of Agonists of the GPR35 Receptor using an Image-Based Assay - Set 2. [Related pubchem assays (depositor defined):AID2013, AID2026]; type: functional
Cannabinoid receptor 1 [5] = target: T4, Cannabinoid receptor 1 (Homo sapiens, UniProt P21554); experiment: SAR analysis of agonists of the Cannabinoid Receptor 1 using an Image-Based Assay - Set 2. [Related pubchem assays (depositor defined):AID2013, AID2026]; type: functional
[6] = target: T5, Calpain-2 catalytic subunit (Sus scrofa, UniProt P43367); experiment: pig calpain II inhibitor potency, dose response, biochemical, fluorogenic peptide substrate (AID 1420); type: functional
T5 sequence (P43367 whole entry): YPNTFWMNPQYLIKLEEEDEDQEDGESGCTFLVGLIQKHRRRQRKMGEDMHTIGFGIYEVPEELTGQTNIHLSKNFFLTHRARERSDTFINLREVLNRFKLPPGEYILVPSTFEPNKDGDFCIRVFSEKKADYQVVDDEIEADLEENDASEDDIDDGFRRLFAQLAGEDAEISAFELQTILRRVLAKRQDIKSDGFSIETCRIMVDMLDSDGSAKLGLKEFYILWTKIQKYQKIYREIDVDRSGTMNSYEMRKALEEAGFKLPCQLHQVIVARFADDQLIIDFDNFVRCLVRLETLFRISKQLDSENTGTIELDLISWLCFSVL

Cannabinoid receptor 1 [7] = target: T4, Cannabinoid receptor 1; experiment: SAR analysis of antagonists of the Cannabinoid Receptor 1 using an Image-Based Assay - Set 2. [Related pubchem assays (depositor defined):AID2013, AID2026]; type: functional
[8] = target: T2, G-protein coupled receptor 55; experiment: GPR55 antagonist potency of analogs, SAR follow-up, imaging, U2OS, beta-arrestin-GFP, LPI agonist, set 2 (AID 2820); type: functional
[9] = target: T3, G-protein coupled receptor 35; experiment: SAR analysis of Antagonists of the GPR35 Receptor using an Image-Based Assay - Set 3. [Related pubchem assays (depositor defined):AID2013, AID2026]; type: functional
[10] = target: T6, Probable nicotinate-nucleotide adenylyltransferase (Staphylococcus aureus (strain N315), UniProt P65502); type: functional, Staphylococcus aureus subsp. aureus N315;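 on IC50 Mean: confirmatory dose-response retesting of NadD inhibitor hits first found in an ultra-high-throughput screen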
[11] = target: T6, Probable nicotinate-nucleotide adenylyltransferase; type: functional, Staphylococcus aureus subsp. aureus N315; conditions: read-out: IC50_Mean
[12] = target: T7, Sphingosine 1-phosphate receptor 4 (Homo sapiens, UniProt O95977); experiment: Fluorescence dose response cell-based high throughput screening assay for agonists of the Sphingosine 1-Phosphate Receptor 4 (S1P4). [Related pubchem assays: 1509 (Primary screen.), 1523 (Confirmation screen in triplicates.)]; type: functional
T7 sequence (O95977 whole entry): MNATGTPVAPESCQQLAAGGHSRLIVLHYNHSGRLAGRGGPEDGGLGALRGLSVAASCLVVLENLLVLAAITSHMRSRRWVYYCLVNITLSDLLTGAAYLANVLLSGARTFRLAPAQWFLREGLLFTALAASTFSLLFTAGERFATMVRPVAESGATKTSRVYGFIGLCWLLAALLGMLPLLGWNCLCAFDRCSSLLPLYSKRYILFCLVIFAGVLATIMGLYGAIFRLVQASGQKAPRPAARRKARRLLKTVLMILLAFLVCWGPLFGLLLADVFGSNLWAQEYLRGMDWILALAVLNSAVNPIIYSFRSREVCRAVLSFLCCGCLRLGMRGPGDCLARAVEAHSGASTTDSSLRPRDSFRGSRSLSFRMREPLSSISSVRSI

[13] = target: Sphingosine 1-phosphate receptor 1 (Homo sapiens, UniProt P21453); experiment: Fluorescence-based counterscreen assay for S1P4 agonists: Cell-based dose response high throughput screening assay to identify agonists of the Sphingosine 1-Phosphate Receptor 1 (S1P1). [Related pubchem assays (depositor defined):AID1509, AID1523, AID1801, AID463107, AID463118, AID463119, AID463122, AID463123, AID463129, AID463225, AID504400, AID504460]; type: functional
CHO-K1 = experiment: Counterscreen for antagonists of the orexin 1 receptor (OX1R; HCRTR1): Homogeneous time resolved fluorescence (HTRF)-based cell-based dose response assay to identify antagonists of the parental CHO-K1 cell line. [Related pubchem assays (depositor defined):AID434989, AID435008, AID463079, AID485270, AID492963, AID492964, AID492965, AID493232, AID504699, AID504701]; type: functional; conditions: Cricetulus griseus;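 further: potency for inhibition of ATP-stimulated IP1 production as antagonists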
[14] = Counterscreen for antagonists of the orexin 1 receptor (OX1R; HCRTR1): Fluorescence-based cell-based high throughput dose response assay to identify antagonists of the parental CHO cell line. [Related pubchem assays (depositor defined):AID434989, AID435008, AID463079, AID485270, AID492963, AID492964, AID492965, AID493232, AID504699, AID504701]; type: functional
[15] = target: T8, Orexin/Hypocretin receptor type 1 (Homo sapiens, UniProt O43613); experiment: Fluorescence-based cell-based high throughput dose response assay for antagonists of the orexin 1 receptor (OX1R; HCRTR1). [Related pubchem assays (depositor defined):AID434989, AID435008, AID463079, AID485270, AID492963, AID492964, AID492965, AID493232, AID504717, AID504718]; type: functional
[16] = target: T8, Orexin/Hypocretin receptor type 1; experiment: Homogeneous Time Resolved Fluorescence (HTRF)-based cell-based high throughput dose response assay for antagonists of the orexin 1 receptor (OX1R; HCRTR1). [Related pubchem assays (depositor defined):AID434989, AID435008, AID463079, AID485270, AID492963, AID492964, AID492965, AID493232, AID504717, AID504718]; type: functional
CAAX prenyl protease 2 = target: T9, CAAX prenyl protease 2 (Saccharomyces cerevisiae S288c, UniProt Q03530); type: biochemical
T9 sequence (Q03530 whole entry): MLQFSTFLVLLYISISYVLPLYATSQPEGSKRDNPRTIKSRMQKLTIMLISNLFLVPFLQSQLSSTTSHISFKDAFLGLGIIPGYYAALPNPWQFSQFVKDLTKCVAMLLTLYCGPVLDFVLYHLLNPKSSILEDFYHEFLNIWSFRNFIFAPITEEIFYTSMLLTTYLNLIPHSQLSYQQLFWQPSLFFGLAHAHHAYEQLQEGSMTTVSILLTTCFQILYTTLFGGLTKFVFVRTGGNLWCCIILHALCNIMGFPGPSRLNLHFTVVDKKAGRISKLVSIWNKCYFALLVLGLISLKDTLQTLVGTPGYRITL

[17] = mammalian cell cytotoxicity, dose response, cytotoxicity control, plate reader, cherry-pick samples (AID 504397); type: functional, cell-based
[18] = target: Voltage-dependent T-type calcium channel subunit alpha-1H (Homo sapiens, UniProt O95180); experiment: Cav3.2 T-type channel inhibitors, synthesized analogs, SAR follow-up, cell-based, synthetic library set 2, HEK293 HH8, Fluo-4 (AID 493023); type: functional
[19] = Luminescence Cell-Based Dose Response HTS to Identify Inhibitors of 5'UTR Stem-Loop Driven Prion Protein mRNA Translation in H4 Neuroglioblastoma Cells. [Related pubchem assays: 1827 (Project Summary), 1813 (Primary HTS)]; type: functional
[20] = Luminescence Cell-Based Dose Response HTS to Identify Activators of Luciferase Translation or Activity in H4-C Neuroglioblastoma Cells. [Related pubchem assays: 1829 (Project Summary), 1814 (Primary HTS)]; type: functional
[21] = cytotoxicity in HEK-293T cells, dose response, cytotoxicity control for TCR NF-kB inhibitor project, luminescence, T-cell screen hits (AID 489026); type: functional, cell-based;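 further: cells exposed to compound about 14 hours before the viability readout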
[22] = Luminescence Cell-Based Dose Response HTS to Identify Inhibitors of Luciferase Translation or Activity in H4-C Neuroglioblastoma Cells. [Related pubchem assays: 1813 (Primary HTS), 1827 (Project Summary)]; type: functional
cells = type: functional, cell-based
[23] = inhibitors of SNCA 5'UTR-driven reporter translation, confirmation, H4 neuroglioma cells, luminescence (AID 1988); type: functional, cell-based
[24] = Luminescence Cell-Based Dose Response HTS to Identify Activators of 5'UTR Stem-Loop Driven Prion Protein mRNA Translation in H4-C Neuroglioblastoma Cells. [Related pubchem assays: 1829 (Project Summary), 1814 (Primary HTS)]; type: functional
[25] = Luminescence Cell-Based Dose Retest to Confirm Activators of 5'UTR Stem-Loop Driven Alpha-Synuclein mRNA Translation in H4 Neuroglioblastoma Cells. [Related pubchem assays (depositor defined):AID1813, AID1829]; type: functional
[26] = Luminescence Cell-Based Dose HTS Response to Identify Inhibitors of 5'UTR Stem-Loop Driven Prion Protein mRNA Translation in H4-C Neuroglioblastoma Cells. [Related pubchem assays (depositor defined):AID1814, AID1827]; type: functional
[27] = Luminescence Cell-Based Dose Confirmation HTS to Identify Inhibitors of 5'UTR Stem-Loop Driven Alpha-Synuclein mRNA Translation in H4 Neuroglioblastoma Cells. [Related pubchem assays: 1827 (Project Summary), 1813 (Primary HTS)]; type: functional
[28] = luciferase reporter signal reduction – luminescence, H4-C neuroglioblastoma cells, dose response (AID 2458); type: functional, cell-based;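 further: H4 neuroglioblastoma cells stably carrying a luciferase reporter gene fusion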
[29] = inhibitors of firefly luciferase expression or activity, dose response, H4 neuroglioma cells, luminescence (AID 1990); type: functional, cell-based
[30] = inhibitors of SNCA 5'UTR-driven translation, confirmation, luminescence, H4 neuroglioblastoma cells, dose confirmation (AID 2454); type: functional, cell-based;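 further: H4 neuroglioblastoma cells carrying an alpha-synuclein 5'UTR luciferase reporter; potency for inhibition of the luciferase signal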
[31] = target: T10, Tyrosine-protein phosphatase non-receptor type 7 (Homo sapiens, UniProt P35236); experiment: HePTP (PTPN7) phosphatase inhibitor potency, SAR follow-up, biochemical, set 2 (AID 449736); type: functional
T10 sequence (P35236 whole entry): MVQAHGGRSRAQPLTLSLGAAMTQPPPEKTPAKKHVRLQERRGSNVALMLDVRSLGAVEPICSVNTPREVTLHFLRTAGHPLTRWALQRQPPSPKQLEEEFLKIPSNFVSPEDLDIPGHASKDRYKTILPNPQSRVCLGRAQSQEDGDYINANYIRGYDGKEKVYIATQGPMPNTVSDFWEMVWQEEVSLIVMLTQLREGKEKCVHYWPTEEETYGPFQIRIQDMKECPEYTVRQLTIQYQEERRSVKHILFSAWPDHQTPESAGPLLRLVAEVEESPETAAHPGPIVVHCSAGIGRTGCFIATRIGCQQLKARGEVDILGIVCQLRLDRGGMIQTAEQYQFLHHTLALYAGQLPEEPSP

T8 sequence (O43613 whole entry): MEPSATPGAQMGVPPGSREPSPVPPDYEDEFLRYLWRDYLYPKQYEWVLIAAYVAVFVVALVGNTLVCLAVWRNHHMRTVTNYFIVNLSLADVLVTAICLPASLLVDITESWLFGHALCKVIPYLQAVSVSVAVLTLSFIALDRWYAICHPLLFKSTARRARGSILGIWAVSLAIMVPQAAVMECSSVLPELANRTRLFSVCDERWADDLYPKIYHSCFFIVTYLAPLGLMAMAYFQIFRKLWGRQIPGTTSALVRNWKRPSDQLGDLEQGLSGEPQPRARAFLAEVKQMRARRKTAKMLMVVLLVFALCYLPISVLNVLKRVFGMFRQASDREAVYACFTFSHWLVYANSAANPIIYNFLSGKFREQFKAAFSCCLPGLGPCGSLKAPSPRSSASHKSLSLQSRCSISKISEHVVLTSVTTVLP
T4 sequence (P21554 whole entry): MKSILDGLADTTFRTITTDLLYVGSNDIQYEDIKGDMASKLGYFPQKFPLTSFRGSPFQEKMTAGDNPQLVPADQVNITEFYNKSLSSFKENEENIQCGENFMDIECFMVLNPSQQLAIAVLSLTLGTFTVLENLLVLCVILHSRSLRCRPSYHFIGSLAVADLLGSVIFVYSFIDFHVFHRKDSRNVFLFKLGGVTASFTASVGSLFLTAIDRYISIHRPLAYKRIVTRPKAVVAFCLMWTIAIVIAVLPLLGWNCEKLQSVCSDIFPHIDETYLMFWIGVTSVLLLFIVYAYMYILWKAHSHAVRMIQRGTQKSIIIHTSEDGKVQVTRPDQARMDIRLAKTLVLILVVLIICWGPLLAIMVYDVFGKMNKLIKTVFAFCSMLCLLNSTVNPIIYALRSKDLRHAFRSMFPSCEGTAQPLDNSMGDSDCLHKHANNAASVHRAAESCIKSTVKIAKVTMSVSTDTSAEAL
T1 sequence (P34972 whole entry): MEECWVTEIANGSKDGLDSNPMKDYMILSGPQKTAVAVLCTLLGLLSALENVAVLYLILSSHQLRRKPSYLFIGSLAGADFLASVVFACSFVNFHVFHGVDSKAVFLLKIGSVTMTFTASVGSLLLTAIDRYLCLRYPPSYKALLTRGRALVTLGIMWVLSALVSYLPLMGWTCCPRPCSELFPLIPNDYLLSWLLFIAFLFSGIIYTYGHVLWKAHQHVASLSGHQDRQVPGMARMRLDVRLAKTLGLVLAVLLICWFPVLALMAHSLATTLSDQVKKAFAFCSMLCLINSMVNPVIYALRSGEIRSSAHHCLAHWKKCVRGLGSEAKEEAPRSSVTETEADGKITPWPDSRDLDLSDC
T3 sequence (Q9HC97 whole entry): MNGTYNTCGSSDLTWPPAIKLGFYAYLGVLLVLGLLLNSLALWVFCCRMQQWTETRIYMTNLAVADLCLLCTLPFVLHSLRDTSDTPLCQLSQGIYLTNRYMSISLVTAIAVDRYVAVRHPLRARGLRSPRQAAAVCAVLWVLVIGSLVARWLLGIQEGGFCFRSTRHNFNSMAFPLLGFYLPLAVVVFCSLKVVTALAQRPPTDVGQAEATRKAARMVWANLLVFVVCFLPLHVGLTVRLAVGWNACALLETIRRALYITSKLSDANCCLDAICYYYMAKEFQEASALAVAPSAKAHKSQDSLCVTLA
T6 sequence (P65502 whole entry): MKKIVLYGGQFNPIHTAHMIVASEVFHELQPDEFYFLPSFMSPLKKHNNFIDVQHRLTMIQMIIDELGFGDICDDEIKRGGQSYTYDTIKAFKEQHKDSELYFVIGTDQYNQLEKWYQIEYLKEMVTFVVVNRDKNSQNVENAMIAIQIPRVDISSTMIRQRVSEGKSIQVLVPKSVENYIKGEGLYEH
T2 sequence (Q9Y2T6 whole entry): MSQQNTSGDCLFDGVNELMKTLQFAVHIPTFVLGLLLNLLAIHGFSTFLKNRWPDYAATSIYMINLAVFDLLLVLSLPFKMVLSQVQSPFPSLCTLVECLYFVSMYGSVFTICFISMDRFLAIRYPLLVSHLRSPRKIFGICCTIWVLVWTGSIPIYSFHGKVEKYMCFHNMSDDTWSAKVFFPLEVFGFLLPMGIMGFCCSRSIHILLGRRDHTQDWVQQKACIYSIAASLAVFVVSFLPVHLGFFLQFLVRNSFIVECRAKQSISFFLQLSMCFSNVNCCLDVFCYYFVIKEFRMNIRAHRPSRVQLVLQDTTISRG
Chain of Sphingosine 1-phosphate receptor 1 (P21453 whole entry): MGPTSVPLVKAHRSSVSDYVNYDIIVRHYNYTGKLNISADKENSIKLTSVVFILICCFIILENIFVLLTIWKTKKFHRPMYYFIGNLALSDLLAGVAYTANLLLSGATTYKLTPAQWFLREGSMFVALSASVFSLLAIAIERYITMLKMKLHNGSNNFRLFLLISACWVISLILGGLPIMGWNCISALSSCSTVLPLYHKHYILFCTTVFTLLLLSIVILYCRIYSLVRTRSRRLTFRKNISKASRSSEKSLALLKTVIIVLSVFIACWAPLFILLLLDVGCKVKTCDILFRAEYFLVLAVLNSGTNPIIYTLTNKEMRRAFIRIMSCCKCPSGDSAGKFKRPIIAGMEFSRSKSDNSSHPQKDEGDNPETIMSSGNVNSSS
Chain of Voltage-dependent T-type calcium channel subunit alpha-1H (O95180 whole entry): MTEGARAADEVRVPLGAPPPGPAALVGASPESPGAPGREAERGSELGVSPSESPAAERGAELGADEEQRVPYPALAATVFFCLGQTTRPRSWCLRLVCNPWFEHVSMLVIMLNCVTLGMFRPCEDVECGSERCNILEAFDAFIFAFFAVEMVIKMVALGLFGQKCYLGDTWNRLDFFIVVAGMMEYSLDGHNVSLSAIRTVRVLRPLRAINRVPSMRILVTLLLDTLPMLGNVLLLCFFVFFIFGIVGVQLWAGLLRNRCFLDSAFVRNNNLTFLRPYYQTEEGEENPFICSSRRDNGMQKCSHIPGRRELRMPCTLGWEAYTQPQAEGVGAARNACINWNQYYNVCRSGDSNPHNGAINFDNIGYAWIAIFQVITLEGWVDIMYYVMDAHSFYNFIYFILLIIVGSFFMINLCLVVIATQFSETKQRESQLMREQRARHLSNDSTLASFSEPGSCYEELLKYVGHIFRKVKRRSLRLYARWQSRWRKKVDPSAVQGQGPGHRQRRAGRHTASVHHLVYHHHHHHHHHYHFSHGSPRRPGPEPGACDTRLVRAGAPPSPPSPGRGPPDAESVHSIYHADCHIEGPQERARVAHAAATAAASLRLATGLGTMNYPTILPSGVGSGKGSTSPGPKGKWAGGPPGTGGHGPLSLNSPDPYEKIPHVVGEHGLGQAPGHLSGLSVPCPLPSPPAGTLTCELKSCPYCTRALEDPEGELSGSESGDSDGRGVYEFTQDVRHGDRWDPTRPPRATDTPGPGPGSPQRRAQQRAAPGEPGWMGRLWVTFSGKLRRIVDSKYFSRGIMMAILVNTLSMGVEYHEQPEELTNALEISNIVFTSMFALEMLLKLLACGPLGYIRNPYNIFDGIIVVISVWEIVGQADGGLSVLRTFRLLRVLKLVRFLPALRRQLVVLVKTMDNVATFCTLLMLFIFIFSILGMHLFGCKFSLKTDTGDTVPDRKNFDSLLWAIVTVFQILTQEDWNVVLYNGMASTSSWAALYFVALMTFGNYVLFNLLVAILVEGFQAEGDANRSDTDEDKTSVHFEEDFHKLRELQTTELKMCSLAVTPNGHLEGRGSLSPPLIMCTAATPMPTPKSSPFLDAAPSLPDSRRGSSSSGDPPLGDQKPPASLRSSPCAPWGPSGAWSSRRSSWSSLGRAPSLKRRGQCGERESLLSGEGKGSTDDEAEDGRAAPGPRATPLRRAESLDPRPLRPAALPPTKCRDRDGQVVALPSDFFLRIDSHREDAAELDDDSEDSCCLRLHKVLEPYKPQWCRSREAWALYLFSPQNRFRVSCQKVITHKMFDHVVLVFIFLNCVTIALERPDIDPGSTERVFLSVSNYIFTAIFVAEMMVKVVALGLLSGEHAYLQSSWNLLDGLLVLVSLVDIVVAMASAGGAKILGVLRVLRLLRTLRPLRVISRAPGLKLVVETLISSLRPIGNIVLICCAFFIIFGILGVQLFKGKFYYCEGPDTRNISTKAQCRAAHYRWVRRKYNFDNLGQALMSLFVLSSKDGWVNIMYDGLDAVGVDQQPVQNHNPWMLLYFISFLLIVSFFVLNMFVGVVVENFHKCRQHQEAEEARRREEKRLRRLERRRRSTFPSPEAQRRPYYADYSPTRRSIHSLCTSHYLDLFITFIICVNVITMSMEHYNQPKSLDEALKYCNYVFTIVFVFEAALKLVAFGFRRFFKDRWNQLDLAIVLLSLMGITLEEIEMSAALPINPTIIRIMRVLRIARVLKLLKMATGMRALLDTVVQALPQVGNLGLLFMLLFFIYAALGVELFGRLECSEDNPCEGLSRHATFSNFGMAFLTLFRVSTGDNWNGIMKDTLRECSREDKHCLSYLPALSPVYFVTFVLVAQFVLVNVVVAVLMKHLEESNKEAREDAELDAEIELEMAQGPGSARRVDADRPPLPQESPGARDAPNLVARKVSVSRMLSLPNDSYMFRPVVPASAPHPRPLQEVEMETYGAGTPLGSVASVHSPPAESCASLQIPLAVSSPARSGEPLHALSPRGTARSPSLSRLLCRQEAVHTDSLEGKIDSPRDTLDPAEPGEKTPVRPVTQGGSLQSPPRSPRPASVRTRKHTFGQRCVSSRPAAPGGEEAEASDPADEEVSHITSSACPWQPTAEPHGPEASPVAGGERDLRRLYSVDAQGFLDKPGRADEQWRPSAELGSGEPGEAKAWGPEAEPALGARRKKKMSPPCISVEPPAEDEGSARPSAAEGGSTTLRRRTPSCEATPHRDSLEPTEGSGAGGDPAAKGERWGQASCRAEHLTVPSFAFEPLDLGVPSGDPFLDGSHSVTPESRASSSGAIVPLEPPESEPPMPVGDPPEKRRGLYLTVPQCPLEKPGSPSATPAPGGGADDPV

Cc1cc(C)c2nc(-c3cccnc3)cc(C(=O)Nc3ccc(S(=O)(=O)Nc4onc(C)c4C)cc3)c2c1
EC50 (Cannabinoid receptor 2 [1]): > 32 µM (inactive)
IC50 (Cannabinoid receptor 2 [2]): > 32 µM (inactive)
IC50 [3]: 1.55 µM (active)
EC50 [4]: > 32 µM (inactive)
EC50 (Cannabinoid receptor 1 [5]): > 32 µM (inactive)
IC50 [6]: > 50 µM (not active)
IC50 (Cannabinoid receptor 1 [7]): > 32 µM (inactive)
IC50 [8]: 0.457 µM (active)
IC50 [9]: > 32 µM (inactive)
IC50 [10]: 3.76 µM (active)
IC50 [11]: 12.5 µM (active)

Cc1ccc2nc3c(cc(C#N)c(=O)n3-c3nccs3)c(=O)n2c1
EC50 [12]: 3.72 µM (active)
EC50 [13]: 10.6 µM (inactive)

CC(=O)NC(N=C(S)Nc1ccc(N=Nc2ccccc2)cc1)C(Cl)(Cl)Cl (centres undefined)
IC50 (CHO-K1): > 66.2 µM (inactive)
IC50 [14]: > 5.53 µM (active)
IC50 [15]: 6.68 µM (active)
IC50 [16]: 42.3 µM (inactive)

Nc1nnnn1/N=C/c1cccc(OCc2ccccc2Cl)c1
AC50 (CAAX prenyl protease 2): 2.78 µM (active)
AC50 [17]: > 350 µM (inactive)

CC(C)(C)CCN1CCC[C@@H](NC(=O)COc2ccccc2Cl)C1
EC50 [18]: 10 µM (active)

CCOC(=O)COc1cccc2c(=O)n(CC(=O)NCc3ccc(F)cc3)ccc12
EC50 [19]: > 120 µM (not active)
EC50 [20]: 1.36 µM (inconclusive)
IC50 [21]: > 80 µM (inactive)
EC50 [22]: 1.36 µM (active)
EC50 (cells): 2.36 µM (active)
EC50 [23]: < 0.1 µM (active)
EC50 [24]: 22.4 µM (inconclusive)
EC50 [25]: 26.6 µM (inconclusive)
EC50 [26]: 22.4 µM (active)
EC50 [27]: 26.6 µM (active)
EC50 [28]: > 12 µM (inconclusive)
EC50 [29]: 12.6 µM (active)
EC50 [30]: 1.51 µM (active)

Cc1ccc(-n2c(N)c(C(=O)Nc3ccccc3F)sc2=S)cc1C
IC50 [31]: 50.5 µM (active)
